According to patent US20240299378A1, “EMULSION FOR USE IN THE TREATMENT OF ROSACEA” (EXINOV, priority 2021, published 2024):

Tested on: cell proliferation in the local lymph nodes
Test: mouse Local Lymph Node Assay (LLNA), 3HTdR incorporation
Conditions: topical on ears days 1-3; Em-A 100% (w/v) in AOO; HCA 25% (w/v) in AOO
Excerpt: Preliminary tests: Based on the results of the Preliminary Compatibility Test, the tested emulsions characteristics (e.g., when the emulsion is a dense cream), its use and following the Organisation for Economic Co-operation and Development (OECD) Guidelines, the best vehicle for the tested emulsions was considered as AOO (acetone:olive oil 4:1 (v/v) mixture). The tested emulsions at 100% (w/v) were suitable for the test using AOO as vehicle. […] Based on the observations recorded in this test, the 100% (w/v) in AOO dose was selected as top dose for the main test. […] Tested emulsions were applied on the dorsal surface of ears of experimental animals (25 μL/ear using positive displacement pipette) for three consecutive days (days 1, 2 and 3). There was no treatment on days 4, 5 and 6. The cell proliferation in the local lymph nodes was assessed by measuring the incorporation of tritiated methyl thymidine (3HTdR) and the values obtained were used to calculate stimulation indices (SI) in comparison with the control group.

Compound: CCCCCCC(C=O)=Cc1ccccc1 [HCA, α-hexylcinnamaldehyde]
- stimulation index (SI): 12.7
